Assay [1] deals with Aldo-keto reductase family 1 member B1 (Rattus norvegicus, UniProt P07943). Put plainly: Tested for in vitro inhibition activity against rat Aldose reductase (AR).
Assay [2] has as its target T1, Aldo-keto reductase family 1 member A1 (Homo sapiens, UniProt P14550).
T1 sequence (P14550 whole entry): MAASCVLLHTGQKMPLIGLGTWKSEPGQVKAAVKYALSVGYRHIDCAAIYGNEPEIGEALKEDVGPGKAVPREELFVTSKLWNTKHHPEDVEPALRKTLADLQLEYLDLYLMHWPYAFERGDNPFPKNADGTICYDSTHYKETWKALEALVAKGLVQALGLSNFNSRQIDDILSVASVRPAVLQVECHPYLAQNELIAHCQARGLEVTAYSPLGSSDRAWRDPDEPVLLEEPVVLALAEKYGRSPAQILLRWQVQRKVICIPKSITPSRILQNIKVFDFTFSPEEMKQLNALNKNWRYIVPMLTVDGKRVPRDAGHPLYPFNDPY
The assay is described as follows: Tested for in vitro inhibition activity against human aldehyde reductase (AHR).

Assay [3] deals with Aldo-keto reductase family 1 member B1 (Homo sapiens, UniProt P15121). The assay is described as follows: Tested for in vitro inhibition activity against human Aldose reductase (human AR).

For two compounds, IC50 results are on record in ChEMBL document CHEMBL1133756, “A potent aldose reductase inhibitor, (2S,4S)-6-fluoro-2', 5'-dioxospiro[chroman-4,4'-imidazolidine]-2-carboxamide (Fidarestat): its absolute configuration and interactions with the aldose reductase by X-ray crystallography” (J Med Chem, 2000).

For orientation: IC50 means the concentration that inhibits the measured activity by half. `NC(=O)[C@H]1C[C@]2(NC(=O)NC2=O)c2cc(F)ccc2O1` gave a half-inhibitory concentration (IC50) in assay [1] of 570 nM.
For the compound `NC(=O)[C@@H]1C[C@]2(NC(=O)NC2=O)c2cc(F)ccc2O1`, the half-maximal inhibitory concentration (IC50) in assay [2] worked out at 1200 nM; in assay [3] it was 9 nM; in assay [1] it was 35 nM.
